From patent US20260325489A1, “PHARMACEUTICAL COMPOSITIONS COMPRISING 5-METHOXY-N,N-DIMETHYLTRYPTAMINE (5-MEO-DMT)” (Beckley Psytech Limited, priority 2023, published 2026)
“Also recorded” adds a separate entry of the source.

Assays:
[1] = thermal decomposition properties of salt forms (TGA); format: physicochemical
Excerpt: The thermal decomposition properties of a range of salt forms of 5-MeO-DMT has been investigated and is summarised in the report below: […]

[2] = Phase 1 single ascending dose study of intranasal 5-MeO-DMT HCl in healthy subjects; format: in vivo; details: human plasma
Excerpt: (§1) The applicant has funded double-blind, randomised, Phase 1, single ascending dose studies to evaluate the safety, tolerability and pharmacokinetic profile of intranasal 5-MeO-DMT hydrochloride and intranasal 5-MeO-DMT benzoate in healthy subjects. […] It is desirable that a compound for use in treatment has dose-proportional pharmacokinetics, for example, to facilitate dose and dose regimen adjustment in patients. In an embodiment, there is provided a salt of 5-MeO-DMT with dose-proportional pharmacokinetics, optionally for use in the methods disclosed herein. In an embodiment, the salt of 5-MeO-DMT with dose-proportional pharmacokinetics is the benzoate or HBr salt, optionally the benzoate salt. A double-blind, randomised, Phase 1, single ascending dose study to evaluate the safety, tolerability and pharmacokinetic profile of a liquid intranasal 5-MeO-DMT HCl (5-MeO-DMT HCl, HPMC, water for injection (WFI) and a sodium hydroxide solution to adjust pH) pharmaceutical composition/formulation in healthy subjects was performed.

[3] = physical stability / hygroscopicity of salts and formulations
[4] = format: in vivo, human (healthy subjects)
Excerpt: as §1
A double-blind, randomised, Phase 1, single ascending dose study to evaluate the safety, tolerability and pharmacokinetic profile of intranasal 5-MeO-DMT benzoate in healthy subjects was performed.

[5] = dissolution rate (UV-fibre optic dissolution apparatus, simulated nasal fluid); format: physicochemical
Procedure: The dissolution rate of SDD was determined using a method comprising the use of a UV-fibre optic-based dissolution apparatus (one such suitable device is the Rainbow® Dynamic Dissolution Monitor by Pion Inc) and simulated nasal fluid. The simulated nasal fluid comprises 7.45 g/L NaCl, 1.29 g/L KCl, 0.32 g/L CaCl2)×2H2O and deionised water.

[6] = solid state by XRPD and DSC; format: physicochemical; details: XRPD and/or DSC, after spray drying or lyophilisation
Procedure: Unless otherwise stated herein all X-ray powder diffractograms (XRPD) were generated using an X-ray wavelength of 1.5406 Å; all modulated differential scanning calorimetry (DSC) thermograms were generated using a 2 °C/min heating rate.

With `O=C(O)C(O)C(O)C(=O)O` (centres unmarked) [Tartrate] the decomposition temperature [1] was “Melt ~140 °C, decomp ~200 °C”.
With Fumarate the decomposition temperature [1] was “Decomp around 200 °C”.
With `COc1ccc2[nH]cc(CCN(C)C)c2c1.Cl` [5-MeO-DMT HCl] the mean concentration profiles ([2]; 5 mg, 8 mg, 10 mg, 11 mg and 14 mg) was “substantially similar”, the dose-proportional pharmacokinetics ([2]; liquid intranasal HCl formulation, 5, 8, 10, 11 and 14 mg) was “does not display dose-proportional pharmacokinetics” and the “stability profile, in words” value [3] was “issues relating to stability, discoloration and a reduction in desirable pharmacokinetic properties”.
For Tosylate, the “temperature at which gross decomposition starts” value [1] was “Melt 110 °C, gross decomp starts 280 °C”.
With Glycolate the “temperature at which gross decomposition starts” value [1] was “Melt 95 °C, gross decomp starts 170 °C”.
For Oxalate, the mass loss [1] was “Melts 176 °C, full mass loss”.
In the case of `O=C(O)CC(O)C(=O)O` (centres unmarked) [Malate], the “temperature at which gross decomposition starts” value [1] is reported as “Melt 100 °C, gross decomp starts 250 °C”.
With `CN(C)CCc1c[nH]c2ccc(O)cc12` [Bufotenin] the “detection of O-demethylated metabolite (Bufotenin)” value ([4]; 6 mg dose level of intranasal 5-MeO-DMT benzoate, after the 16 minutes time point) was “only detected at very low levels”.
For Phosphate, the decomposition temperature [1] was “Decomp around 200 °C”.
With `C1=Cc2cccc(OC[C@H]3CNCCO3)c2C1.O=S(=O)(O)c1ccccc1` [Benzenesulfonate] the “temperature at which gross decomposition starts” value [1] was “Melt 76 °C, gross decomp starts 280 °C”.
In the case of `Br.COc1ccc2[nH]cc(CCN(C)C)c2c1` [5-MeO-DMT hydrobromide], the “physical / state stability, in words” value [3] is reported as “stable amorphous dispersion without the need for any additional drying step post spray drying; also recorded: state-stable when stored at above the temperature range 2-8 °C” and the “temperature at which gross decomposition starts” value [1] is reported as “Melt 149 °C, gross decomp starts 220 °C”.
In the case of `O=C(O)CCC(=O)C(=O)O` [Ketoglutarate], the “temperature at which gross decomposition starts” value [1] is reported as “Melt 85 °C, gross decomp starts 170 °C”.
With `COc1ccc2[nH]cc(CCN(C)C)c2c1.O=C(O)c1ccccc1` [5-MeO-DMT benzoate] the “dissolution rate / profile, in words” value [5] was “almost instantaneous dissolution rate; also recorded: a reduced dissolution rate as compared to the amorphous form of 5-MeO-DMT salts”, the “mean Cmax” value ([4]; intranasal, 12 mg dosage, human plasma) was 29 ng/mL and the “mean Tmax” value ([4]; intranasal, human plasma) was 9.5 min. For the same compound, the “solid state of the dispersion produced” value [6] was “amorphous dispersion with no sign of the crystalline benzoate salt”, the “physical / state stability, in words” value [3] was “storage at 2-8° C., and protection from moisture, prevents recrystallisation and aggregation; also recorded: stable crystalline spray dried dispersion particle with no respirable API fines or significant aggregation” and the “stability profile, in words” value [3] was “good stability profile”. For the same compound, the mass loss [1] was “full mass loss” and the “temperature at which decomposition starts” value [1] was roughly 220 °C.
